The values below come from patent publication US20220402948A1, “EGFR INHIBITOR, COMPOSITION AND PREPARATION METHOD THEREFOR” (BETTA PHARMACEUTICALS CO., LTD., priority 2019, published 2022).

As usually defined, the IC50 is the concentration needed to halve the response being measured.

For one assay, the target named is EGFRΔ19del/T790M/C797S (Homo sapiens, UniProt P00533, T790M/C797S, form not given). The assay can be described thus: EGFR Δ19del/T790M/C797S kinase test (mobility variation analysis, Caliper EZ Reader). The settings on record: kinase enzymatic activity, Table 1. The class given is biochemical. The method, boiled down: (§1)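 Kinase pre-incubated with compound 10 minutes at room temperature, then ATP plus peptide substrate added; substrate conversion read by mobility shift after stop solution. Percent inhibition normalized to no-compound and no-enzyme controls; IC50 from variable-slope log(inhibitor) fit.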
Sequence of EGFRΔ19del/T790M/C797S (P00533 with tags, fused parts or gaps DEL746-750/T790M/C797S, form open): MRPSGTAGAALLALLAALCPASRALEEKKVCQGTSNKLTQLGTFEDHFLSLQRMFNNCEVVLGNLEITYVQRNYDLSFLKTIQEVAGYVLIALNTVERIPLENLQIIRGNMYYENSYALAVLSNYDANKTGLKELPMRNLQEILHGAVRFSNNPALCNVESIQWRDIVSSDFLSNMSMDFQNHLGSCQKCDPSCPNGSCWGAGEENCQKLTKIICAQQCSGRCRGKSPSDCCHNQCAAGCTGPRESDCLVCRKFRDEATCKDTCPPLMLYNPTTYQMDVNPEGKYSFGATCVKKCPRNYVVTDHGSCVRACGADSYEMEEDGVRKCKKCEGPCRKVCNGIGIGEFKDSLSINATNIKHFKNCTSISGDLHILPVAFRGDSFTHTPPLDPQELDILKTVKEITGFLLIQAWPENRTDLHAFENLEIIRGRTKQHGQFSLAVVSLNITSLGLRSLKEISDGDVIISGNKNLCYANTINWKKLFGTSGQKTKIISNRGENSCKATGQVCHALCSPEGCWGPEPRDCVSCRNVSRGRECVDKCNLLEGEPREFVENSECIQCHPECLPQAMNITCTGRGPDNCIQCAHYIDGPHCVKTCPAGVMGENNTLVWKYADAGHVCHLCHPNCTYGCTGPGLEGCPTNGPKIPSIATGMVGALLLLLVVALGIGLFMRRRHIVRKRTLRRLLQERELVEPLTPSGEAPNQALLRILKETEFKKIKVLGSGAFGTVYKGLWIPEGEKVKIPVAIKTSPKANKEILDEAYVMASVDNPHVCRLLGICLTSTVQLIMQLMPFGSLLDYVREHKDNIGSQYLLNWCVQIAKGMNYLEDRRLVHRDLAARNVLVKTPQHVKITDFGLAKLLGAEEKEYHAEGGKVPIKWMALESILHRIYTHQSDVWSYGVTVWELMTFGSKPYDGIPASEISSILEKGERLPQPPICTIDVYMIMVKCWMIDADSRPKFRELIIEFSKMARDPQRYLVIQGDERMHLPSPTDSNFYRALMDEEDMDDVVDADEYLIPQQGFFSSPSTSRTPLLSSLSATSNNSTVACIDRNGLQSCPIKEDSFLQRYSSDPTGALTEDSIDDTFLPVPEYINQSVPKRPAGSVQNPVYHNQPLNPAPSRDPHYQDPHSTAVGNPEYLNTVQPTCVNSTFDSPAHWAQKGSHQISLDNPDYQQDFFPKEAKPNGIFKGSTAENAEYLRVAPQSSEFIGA

The next assay deals with EGFR WT (Homo sapiens, UniProt P00533). The assay can be described thus: EGFR WT kinase test (mobility variation analysis, Caliper EZ Reader). In kind it is biochemical. The following applies: kinase enzymatic activity, Table 1. In outline: as §1
Sequence of EGFR WT (P00533 25-1210): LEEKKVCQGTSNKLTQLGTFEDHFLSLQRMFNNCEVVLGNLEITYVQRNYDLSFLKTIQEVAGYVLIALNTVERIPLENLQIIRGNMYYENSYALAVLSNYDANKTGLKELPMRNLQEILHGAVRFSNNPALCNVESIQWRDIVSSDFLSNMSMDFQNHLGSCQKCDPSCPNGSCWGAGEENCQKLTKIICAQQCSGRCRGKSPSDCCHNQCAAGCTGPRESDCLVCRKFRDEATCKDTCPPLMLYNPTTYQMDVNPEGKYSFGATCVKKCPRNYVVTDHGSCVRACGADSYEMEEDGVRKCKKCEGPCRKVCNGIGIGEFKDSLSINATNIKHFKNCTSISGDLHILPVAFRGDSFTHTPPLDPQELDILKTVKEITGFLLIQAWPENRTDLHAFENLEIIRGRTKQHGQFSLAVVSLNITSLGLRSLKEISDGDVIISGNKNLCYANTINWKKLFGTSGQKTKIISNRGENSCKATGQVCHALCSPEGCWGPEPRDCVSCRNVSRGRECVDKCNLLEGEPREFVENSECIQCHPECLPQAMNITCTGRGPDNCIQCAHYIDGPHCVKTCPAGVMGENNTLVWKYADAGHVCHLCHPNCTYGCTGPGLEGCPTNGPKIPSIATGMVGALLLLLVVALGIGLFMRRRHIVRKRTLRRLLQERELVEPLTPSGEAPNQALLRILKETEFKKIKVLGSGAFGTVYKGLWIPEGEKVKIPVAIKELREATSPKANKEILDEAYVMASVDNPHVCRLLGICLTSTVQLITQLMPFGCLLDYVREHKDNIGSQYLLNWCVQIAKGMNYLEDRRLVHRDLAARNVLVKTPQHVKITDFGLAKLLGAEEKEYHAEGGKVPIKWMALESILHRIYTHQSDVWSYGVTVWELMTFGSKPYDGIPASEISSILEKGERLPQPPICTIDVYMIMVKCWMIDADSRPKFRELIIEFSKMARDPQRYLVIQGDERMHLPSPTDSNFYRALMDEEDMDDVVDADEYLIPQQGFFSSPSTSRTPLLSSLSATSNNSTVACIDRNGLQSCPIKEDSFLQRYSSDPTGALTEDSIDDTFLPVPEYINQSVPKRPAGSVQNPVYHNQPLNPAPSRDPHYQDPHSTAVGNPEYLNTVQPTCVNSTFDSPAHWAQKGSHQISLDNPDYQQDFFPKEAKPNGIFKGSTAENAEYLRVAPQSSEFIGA
A further assay deals with IGF1R (Homo sapiens, UniProt P08069). In words: IGF1R kinase test (mobility variation analysis, Caliper EZ Reader). The following applies: kinase enzymatic activity, Table 1; read-out: EGFR IGF1R IC50. The class given is biochemical. The method, boiled down: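 Kinase preincubated 10 min at room temperature with compound (10-point 3-fold series, top 3000 nM), then ATP and substrate added and reacted at room temperature. Substrate conversion read by mobility-shift (Caliper EZ Reader); % inhibition vs no-enzyme and no-compound controls fitted to variable-slope curve for IC50.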
Sequence of IGF1R (P08069 31-1367, species assumed): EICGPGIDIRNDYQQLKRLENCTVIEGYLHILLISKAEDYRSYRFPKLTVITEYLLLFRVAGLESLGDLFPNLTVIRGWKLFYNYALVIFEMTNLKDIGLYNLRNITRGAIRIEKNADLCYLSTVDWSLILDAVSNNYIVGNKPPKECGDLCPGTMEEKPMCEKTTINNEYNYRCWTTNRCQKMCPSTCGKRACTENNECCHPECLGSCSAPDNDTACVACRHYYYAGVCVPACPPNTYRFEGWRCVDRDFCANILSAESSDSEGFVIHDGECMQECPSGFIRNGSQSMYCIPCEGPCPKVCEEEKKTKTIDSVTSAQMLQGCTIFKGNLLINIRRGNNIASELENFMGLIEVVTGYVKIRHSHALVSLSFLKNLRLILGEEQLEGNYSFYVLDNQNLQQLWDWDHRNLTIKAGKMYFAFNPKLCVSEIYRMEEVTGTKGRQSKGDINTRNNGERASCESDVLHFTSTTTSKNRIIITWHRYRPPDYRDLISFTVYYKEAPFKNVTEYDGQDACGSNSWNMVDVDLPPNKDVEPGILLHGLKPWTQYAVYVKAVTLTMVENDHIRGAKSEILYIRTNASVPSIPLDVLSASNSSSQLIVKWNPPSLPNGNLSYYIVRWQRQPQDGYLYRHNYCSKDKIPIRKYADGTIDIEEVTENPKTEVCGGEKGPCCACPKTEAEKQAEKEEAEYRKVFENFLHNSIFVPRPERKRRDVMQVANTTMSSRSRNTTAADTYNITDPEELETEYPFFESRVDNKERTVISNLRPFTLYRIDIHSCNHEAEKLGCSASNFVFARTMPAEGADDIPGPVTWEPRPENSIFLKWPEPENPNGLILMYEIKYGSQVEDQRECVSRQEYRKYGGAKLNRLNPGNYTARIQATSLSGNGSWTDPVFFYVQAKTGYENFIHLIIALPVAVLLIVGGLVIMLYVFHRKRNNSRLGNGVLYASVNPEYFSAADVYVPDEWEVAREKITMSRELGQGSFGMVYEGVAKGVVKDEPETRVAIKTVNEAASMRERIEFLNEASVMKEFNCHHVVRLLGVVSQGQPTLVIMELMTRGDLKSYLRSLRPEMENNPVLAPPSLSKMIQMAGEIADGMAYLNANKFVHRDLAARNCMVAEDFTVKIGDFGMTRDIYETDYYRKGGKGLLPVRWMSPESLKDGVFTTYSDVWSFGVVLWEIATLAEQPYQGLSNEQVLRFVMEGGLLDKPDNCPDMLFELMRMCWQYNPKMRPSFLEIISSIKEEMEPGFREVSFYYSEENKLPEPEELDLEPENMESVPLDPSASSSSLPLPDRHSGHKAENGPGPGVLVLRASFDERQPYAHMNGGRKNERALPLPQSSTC

Assay [1] addresses Ba/F3 cells with EGFR Δ19del/T790M/C797S mutation gene stably overexpressed (Homo sapiens, UniProt P00533, T790M/C797S, cells depend on it, form not given). In words: Ba/F3-Δ19del/T790M/C797S cell proliferation assay (CellTiter Glo, 72 hours). The class given is cell-based. The settings on record: Table 2, read-out: EGFR Δ19del/T790M/C797S IC50. The method, boiled down:
(§2)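 Ba/F3 cells stably overexpressing wild-type EGFR or EGFR Δ19del/T790M/C797S were seeded at 2000 cells/well and incubated 72 h with compound. Viability was read by CellTiter-Glo luminescence, and IC50 came from a four-parameter logistic fit of signal against log concentration.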

Assay [2] concerns the target Ba/F3-EGFR wild-type cell line (Homo sapiens, UniProt P00533). The assay can be described thus: Ba/F3-EGFR wild-type cell proliferation assay (CellTiter Glo, 72 hours). The settings on record: Table 2, read-out: EGFR WT IC50. In kind it is cell-based. The method, boiled down: as §2
(In general: In ATP-based viability assays light output follows the ATP content of the culture.)

The test system of another assay is A431. In words: A431 cell proliferation assay (CellTiter Glo, 72 hours). In kind it is cell-based. The settings on record: cell proliferation, A431, 72 hours, Table 2, read-out: A431 IC50. In outline:
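A431 cells (2000/well) exposed 72 h to compound at 1000 nM down to 0.2 nM in 3-fold steps, 0.1% DMSO (0.5% for some series). Viability by CellTiter-Glo luminescence; IC50 by four-parameter nonlinear regression.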

Structures are written as SMILES. Where two headings read alike, the source gives them in different places.

Sequence of Ba/F3 cells with EGFR Δ19del/T790M/C797S mutation gene stably overexpressed (P00533 with tags, fused parts or gaps DEL746-750/T790M/C797S, form open): as the sequence (P00533 with tags, fused parts or gaps DEL746-750/T790M/C797S, form open) above

With `CCc1cc(Nc2ncc(Br)c(Nc3ccc(-c4cscn4)cc3P(C)(C)=O)n2)c(OC)cc1N1CCC(N2CCN(C)CC2)CC1` [Compound 28, (2-((5-Bromo-2-((5-ethyl-2-methoxy-4-(4-(4-methylpiperazin-1-yl)piperidin-1-yl)phenyl)amino)pyrimidin-4-yl)amino)-5-(thiazol-4-yl)phenyl)dimethylphosphine oxide], the half-maximal inhibitory concentration (IC50) at EGFRΔ19del/T790M/C797S is 0.2 nM; against EGFR WT it was 12 nM; on IGF1R it was 61 nM; in the assay on A431 (Homo sapiens, A-431, 72 h), 778 nM. The GI50 in assay [1] was 9.9 nM; in assay [2] it was 171 nM.

As for `CCc1cc(Nc2ncc(Br)c(Nc3ccc(-c4ncc(F)cn4)cc3P(C)(C)=O)n2)c(OC)cc1N1CCC(N2CCN(C)CC2)CC1` [Compound 29, (2-((5-Bromo-2-((5-ethyl-2-methoxy-4-(4-(4-methylpiperazin-1-yl)piperidin-1-yl)phenyl)amino)pyrimidin-4-yl)amino)-5-(5-fluoropyrimidin-2-yl)phenyl)dimethylphosphine oxide], the half-maximal inhibitory concentration (IC50) worked out at 0.2 nM against EGFRΔ19del/T790M/C797S; 16 nM at EGFR WT; 80 nM on IGF1R; 2660 nM in the assay with A431 (Homo sapiens, A-431, 72 h). Besides, the GI50 worked out at 13.4 nM in assay [1] and 194 nM in assay [2].

In the case of `CCc1cc(Nc2ncc(Br)c(Nc3ccc(-c4ncn(C)n4)cc3P(C)(C)=O)n2)c(OC)cc1N1CCC(N2CCN(C)CC2)CC1` [Compound 31, (2-((5-Bromo-2-((5-ethyl-2-methoxy-4-(4-(4-methylpiperazin-1-yl)piperidin-1-yl)phenyl)amino)pyrimidin-4-yl)amino)-5-(1-methyl-1H-1,2,4-triazol-3-yl)phenyl)dimethylphosphine oxide], the IC50 at EGFRΔ19del/T790M/C797S came out at 0.3 nM; against EGFR WT it was 27.6 nM; on IGF1R, 179 nM; in the assay on A431 (Homo sapiens, A-431, 72 h), 1030 nM. Besides, the GI50 in assay [1] is 20.8 nM; in assay [2], 559 nM.

Regarding `CCc1cc(Nc2ncc(Cl)c(Nc3ccc(-c4cnccn4)cc3P(C)(C)=O)n2)c(OC)cc1N1CCC(N2CCN(C)CC2)CC1` [Compound 32, (2-((5-Chloro-2-((5-ethyl-2-methoxy-4-(4-(4-methylpiperazin-1-yl)piperidin-1-yl)phenyl)amino)pyrimidin-4-yl)amino)-5-(pyrazin-2-yl)phenyl)dimethylphosphine oxide], the IC50 against EGFRΔ19del/T790M/C797S worked out at 0.4 nM; against EGFR WT, 19.3 nM; at IGF1R it was 184 nM; in the assay on A431 (Homo sapiens, A-431, 72 h), 749 nM. Moreover, the GI50 in assay [1] came out at 17.8 nM; in assay [2], 196 nM.

On to `CCc1cc(Nc2ncc(Br)c(Nc3ccc(-c4ccc(C)nn4)cc3P(C)(C)=O)n2)c(OC)cc1N1CCC(N2CCN(C)CC2)CC1` [Compound 33, (2-((5-Bromo-2-((5-ethyl-2-methoxy-4-(4-(4-methylpiperazin-1-yl)piperidin-1-yl)phenyl)amino)pyrimidin-4-yl)amino)-5-(6-methylpyridazin-3-yl)phenyl)dimethylphosphine oxide], for which the IC50 at EGFRΔ19del/T790M/C797S was 0.3 nM; against EGFR WT, 27.3 nM; at IGF1R, 177 nM; in the assay with A431 (Homo sapiens, A-431, 72 h), 962 nM. Besides, the GI50 in assay [1] turned out to be 13.5 nM; in assay [2] it was 437 nM.

For the compound `CCc1cc(Nc2ncc(Br)c(Nc3ccc(-c4cnc(OC)nc4)cc3P(C)(C)=O)n2)c(OC)cc1N1CCC(N2CCN(C)CC2)CC1` [Compound 34, (2-((5-Bromo-2-((5-ethyl-2-methoxy-4-(4-(4-methylpiperazin-1-yl)piperidin-1-yl)phenyl)amino)pyrimidin-4-yl)amino)-5-(2-methoxypyrimidin-5-yl)phenyl)dimethylphosphine oxide], the IC50 worked out at 0.2 nM against EGFRΔ19del/T790M/C797S; 29.7 nM against EGFR WT; 91.1 nM on IGF1R; 5150 nM in the assay with A431 (Homo sapiens, A-431, 72 h). The GI50 turned out to be 5.8 nM in assay [1] and 180 nM in assay [2].

As for `CCc1cc(Nc2ncc(Br)c(Nc3ccc(-c4cnc(N(C)C)cn4)cc3P(C)(C)=O)n2)c(OC)cc1N1CCC(N2CCN(C)CC2)CC1` [Compound 35, (2-((5-Bromo-2-((5-ethyl-2-methoxy-4-(4-(4-methylpiperazin-1-yl)piperidin-1-yl)phenyl)amino)pyrimidin-4-yl)amino)-5-(5-(dimethylamino)pyrazin-2-yl)phenyl)dimethylphosphine oxide], the IC50 at EGFRΔ19del/T790M/C797S is 0.5 nM; on EGFR WT, 21.5 nM; at IGF1R, 238 nM; in the assay with A431 (Homo sapiens, A-431, 72 h), more than 10000 nM. For the same compound, the GI50 in assay [1] was determined as 3.1 nM; in assay [2] it was 259 nM.

As to `CCc1cc(Nc2ncc(Br)c(Nc3ccc(-n4cc(F)cn4)cc3P(C)(C)=O)n2)c(OC)cc1N1CCC(N2CCN(C)CC2)CC1` [Compound 44, (2-((5-Bromo-2-((5-ethyl-2-methoxy-4-(4-(4-methylpiperazin-1-yl)piperidin-1-yl)phenyl)amino)pyrimidin-4-yl)amino)-5-(4-fluoro-1H-pyrazol-1-yl)phenyl)dimethylphosphine oxide], the 50% inhibitory concentration (IC50) was 0.2 nM against EGFRΔ19del/T790M/C797S; 11.5 nM against EGFR WT; 124 nM at IGF1R; 2380 nM in the assay on A431 (Homo sapiens, A-431, 72 h). The GI50 in assay [1] amounted to 9.5 nM; in assay [2] it was 166 nM.

Regarding `CCc1cc(Nc2ncc(Br)c(Nc3ccc(-c4cnc5c(ccn5C)c4)cc3P(C)(C)=O)n2)c(OC)cc1N1CCC(N2CCN(C)CC2)CC1` [Compound 55], the IC50 on EGFRΔ19del/T790M/C797S was 1.5 nM; on EGFR WT, 36.4 nM; at IGF1R, 497 nM; in the assay with A431 (Homo sapiens, A-431, 72 h), 2960 nM. For the same compound, the GI50 in assay [1] is 35 nM; in assay [2], 1070 nM.

Take `CCc1cc(Nc2ncc(Br)c(Nc3ccc(-c4cncc(OC)n4)cc3P(C)(C)=O)n2)c(OC)cc1N1CCC(N2CCN(C)CC2)CC1` [Compound 59, (2-((5-Bromo-2-((5-ethyl-2-methoxy-4-(4-(4-methylpiperazin-1-yl)piperidin-1-yl)phenyl)amino)pyrimidin-4-yl)amino)-5-(6-methoxypyrazin-2-yl)phenyl)dimethylphosphine oxide]: the IC50 on EGFRΔ19del/T790M/C797S was determined as 1.3 nM; on EGFR WT it was 41 nM; on IGF1R, 395 nM; with A431, 2300 nM. Also, the GI50 stood at 26.3 nM in assay [1] and 1290 nM in assay [2].

For the compound `CCc1cnc(-c2ccc(Nc3nc(Nc4cc(CC)c(N5CCC(N6CCN(C)CC6)CC5)cc4OC)ncc3Br)c(P(C)(C)=O)c2)nc1` [Compound 70], the IC50 came out at 0.9 nM against EGFRΔ19del/T790M/C797S; 38.6 nM against EGFR WT; 246 nM on IGF1R; 6290 nM in the assay with A431 (Homo sapiens, A-431, 72 h). Moreover, the figures for the GI50 in assay [1] and in assay [2] were 9 nM and 407 nM, respectively.

In the case of `CCOc1cnc(-c2ccc(Nc3nc(Nc4cc(CC)c(N5CCC(N6CCN(C)CC6)CC5)cc4OC)ncc3Br)c(P(C)(C)=O)c2)nc1` [Compound 75], the IC50 at EGFRΔ19del/T790M/C797S is 0.5 nM; on EGFR WT it was 16 nM; at IGF1R it was 91 nM; with A431 (Homo sapiens, A-431, 72 h), more than 10000 nM. Also, the GI50 in assay [1] was 16.8 nM; in assay [2], 1010 nM.

Regarding `CCc1cc(Nc2ncc(Br)c(Nc3ccc(-c4cnccn4)cc3P(C)(C)=O)n2)c(OC)cc1N1CCC(N2CCN(C)CC2)CC1` [Compound 78, (2-((5-Bromo-2-((5-ethyl-2-methoxy-4-(4-(4-methylpiperazin-1-yl)piperidin-1-yl)phenyl)amino)pyrimidin-4-yl)amino)-5-(pyrazin-2-yl)phenyl)dimethylphosphine oxide], the half-maximal inhibitory concentration (IC50) at EGFRΔ19del/T790M/C797S was 0.2 nM; against EGFR WT it was 12.6 nM; on IGF1R, 94 nM; with A431 (Homo sapiens, A-431, 72 h), 1090 nM. In addition, the GI50 was found to be 7.2 nM in assay [1] and 134 nM in assay [2].

As for `CCc1cc(Nc2ncc(Br)c(Nc3ccc(-c4cnn(C)n4)c(F)c3P(C)(C)=O)n2)c(OC)cc1N1CCC(N2CCN(C)CC2)CC1` [Compound K-007, (6-((5-Bromo-2-((5-ethyl-2-methoxy-4-(4-(4-methylpiperazin-1-yl)piperidin-1-yl)phenyl)amino)pyrimidin-4-yl)amino)-2-fluoro-3-(2-methyl-2H-1,2,3-triazol-4-yl)phenyl)dimethylphosphine oxide], the IC50 was 0.1 nM against EGFRΔ19del/T790M/C797S; 5.2 nM against EGFR WT; 54.9 nM on IGF1R; 1440 nM in the assay with A431 (Homo sapiens, A-431, 72 h). Besides, the GI50 was determined as 3.2 nM in assay [1] and 130 nM in assay [2].
